Reference: patent publication US20060258713A1, “Treatment of pain” (Wyeth, priority 2005, published 2006)

Test system: Male Sprague-Dawley rats
Test: L5 spinal nerve ligation (SNL) tactile allodynia model, von Frey thresholds
Assay type: in vivo, rat
Details: 0.3, 1 or 3 mg/kg i.p., thresholds up to 60, 180 and 300 minutes after dosing, reversal of tactile allodynia, FIG. 1
Method: Compound 1, (7-(2,6-dichlorophenyl)-5-fluoro-2,3-dihydrobenzofuran-2-yl)methanamine, was obtained from Wyeth compound repository and gabapentin was purchased from Toronto Research Chemicals (Ontario, Canada) and […]. Compound 1 was dissolved in sterile saline and gabapentin was suspended in 2% Tween 80 in 0.5% methylcellulose and sterile water. All compounds were administered intraperitoneally (i.p.).
Male Sprague-Dawley rats (125-150 g, Harlan; Indianapolis, Ind.) were individually housed on bedding. For all studies animals were maintained in climate-controlled rooms on a 12-hour light/dark cycle (lights on at 0630) with food and water available ad libitum. […]
Assessment of Tactile Allodynia (Tactile Sensitivity): Tactile thresholds were assessed using a series of calibrated von Frey monofilaments (Stoelting; Wood Dale, Ill.). The threshold that produced a 50% likelihood of a withdrawal was determined using the up-down method, as previously described (Chaplan et al., 1994).
Animals were placed in elevated wire cages and allowed 45-60 minutes to acclimate to the testing room. […] The lowest force that evoked a brisk withdrawal response to the stimuli determined the pain threshold. Tactile thresholds were determined on the day prior to surgery and rats with baseline thresholds <10 g force were excluded from studies. […]

NCC1Cc2cc(F)cc(-c3c(Cl)cccc3Cl)c2O1 (stereo not shown) [Compound 1, (7-(2,6-dichlorophenyl)-5-fluoro-2,3-dihydrobenzofuran-2-yl)methanamine]
effectiveness in the tactile allodynia model: effectiveness
